Reference: patent publication US20210196685A1, “COMPOSITION FOR ERADICATING HELICOBACTER PYLORI” (HK INNO.N CORPORATION, priority 2018, published 2021)
Entries after “also recorded” stand apart in the source; their conditions may differ.

Tests used:
[1] = Clinical Study 1, Cohort 2: 24-hour intragastric pH on repeated co-administration with amoxicillin/clarithromycin; type: in vivo, human
Description: To identify an effect of eradicating Helicobacter pylori in the present invention, a clinical study was designed in accordance with a randomized, open-label, active-controlled, parallel and multiple-dose design. A total of 221 patients were subjected to screening for this study. Out of them, 36 patients were registered thereto and the completed clinical results were obtained from 34 patients.
Particularly, the 36 patients above were divided into three patient groups (T1, T2 and R) and the clinical study was performed accordingly. […]
The T1 group was repeatedly given 50 mg of CJ-12420 and 1000 mg of amoxicillin/500 mg of clarithromycin twice a day for seven days; the T2 group was repeatedly given 100 mg of CJ-12420 and 1000 mg of amoxicillin/500 mg of clarithromycin twice a day for seven days; and the R group was repeatedly given 40 mg of pantoprazole and 1000 mg of amoxicillin/500 mg of clarithromycin twice a day for seven days. An intragastric pH was measured from all the subjects on Day 1 for 24 hours, and the intragastric pH was also measured for 24 hours on Day 1 and Day 7 of repeated administration. Also, a negative conversion rate was calculated upon a follow-up visit paid by subjects who were identified to be H. pylori positive on the UBT test during screening, and stability evaluation was performed according to a predetermined schedule. […]

[2] = Clinical Study 1, Cohort 1: pharmacokinetic interaction of multiple-dose tegoprazan and amoxicillin/clarithromycin; type: in vivo, human; conditions: for change of AUC on administering the three formulations in combination (in words) / change of Cmax on administering the three formulations in combination (in words): tegoprazan + amoxicillin + clarithromycin in combination
Protocol: To evaluate pharmacokinetic interaction of multiple-dose administration of single and combination of tegoprazan and amoxicillin/clarithromycin, a clinical study was designed in accordance with a randomized, open-label, and multiple-dose design.
A total of 24 subjects who had been determined eligible to participate in the study were randomly assigned in a 1:1 ratio to each one of the two groups. Each randomly-assigned group was administered with investigational medical products as arranged during each intervention period and underwent a clinical study as designed. In consideration of the half-life of each product, a 14-day wash-out period was given between the intervention periods.
A total of 24 subjects were divided into group 1 and group 2. During the first intervention period, subjects of group 1 (12 person) were repeatedly administered with 100 mg of tegoprazan twice a day for four days and administered once a day on the fifth day on which a pharmacokinetic clinical study was conducted. During the second intervention period after a 14-day wash-out period, they were repeatedly administered with 1000 mg of amoxicillin and 500 mg of clarithromycin twice a day for four days and administered once a day on the fifth day. During the third intervention period after a 14-day wash-out period, they were repeatedly administered with 100 mg of tegoprazan, 1000 mg of amoxicillin, and 500 mg of clarithromycin twice a day for six days and administered once a day on the seventh day. Following the last dose of each intervention period, pharmacokinetic blood samples were collected for 17 times over 72 hours in the first period, 14 times over 48 hours in the second period, and 19 times over 120 hours in the third period.
Drugs were administered to subjects of group 2 (12 person) in the reverse order to the way the study was conducted on group 1 in the first and second intervention periods and in the same order in the third intervention period. Pharmacokinetic blood samples were collected in the same manner as group 1.
The average plasma concentrations of tegoprazan, clarithromycin, and amoxicillin were measured and time-based plasma concentration and time-based drug concentration patterns were observed when tegoprazan was repeatedly administered alone, amoxicillin/clarithromycin were repeatedly administered and tegoprazan, amoxicillin, and clarithromycin were repeatedly administered in combination.
Pharmacokinetics of tegoprazan, amoxicillin, and clarithromycin were evaluated. Descriptive statistics of pharmacokinetic evaluation parameters were presented. Point estimates for geometric mean ratio between each group and 90% confidence interval were calculated from the log-converted primary pharmacokinetic evaluation parameters by using a linear mixed effect model.

[3] = tegoprazan 100 mg twice a day, with amoxicillin 1000 mg/clarithromycin 500 mg versus alone

increase of AUC when administered in combination with amoxicillin/clarithromycin [2, 3] [times] | increase of Cmax when administered in combination with amoxicillin/clarithromycin [2, 3] [times] | Compound | speed of intragastric pH increase (to 6 or more) right after the administration [1] | change of AUC on administering the three formulations in combination (in words) [2] | change of Cmax on administering the three formulations in combination (in words) [2]
2.70 | 2.24 | Cc1nc2c(OC3CCOc4cc(F)cc(F)c43)cc(C(=O)N(C)C)cc2[nH]1 (stereo not shown) [Tegoprazan, 4-[(5,7-difluoro-3,4-dihydro-2H-chromene-4-yl)oxy]-N,N,2-trimethyl-1H-benzimidazole-6-carboxamide] | two hours or less | increased | increased
– | – | CC[C@H]1OC(=O)[C@H](C)[C@@H](O[C@H]2C[C@@](C)(OC)[C@@H](O)[C@H](C)O2)[C@H](C)[C@@H](O[C@@H]2O[C@H](C)C[C@H](N(C)C)[C@H]2O)[C@](C)(OC)C[C@@H](C)C(=O)[C@H](C)[C@@H](O)[C@]1(C)O [clarithromycin, (3R,4S,5S,6R,7R,9R,11R,12R,13S,14R)-6-[(2S,3R,4S,6R)-4-(dimethylamino)-3-hydroxy-6-methyloxane-2-yl]oxy-14-ethyl-12,13-dihydroxy-4-[(2R,4R,5S,6S)-5-hydroxy-4-methoxy-4,6-dimethyloxane-2-yl]oxy-7-methoxy-3,5,7,9,11,13-hexamethyl-oxacyclotetradecane-2,10-dione, reference compound] | – | tendency to increase; also recorded: increased | tendency to increase; also recorded: increased
